In ChEMBL document CHEMBL1129315, “Studies on selectin blockers. 2. Novel selectin blocker as potential therapeutics for inflammatory disorders” (J Med Chem, 1996) one finds IC50 data, which are given here for 2 compounds.

For one experiment, the target named is T1, L-selectin (Homo sapiens, UniProt P14151).
T1 sequence (P14151 whole entry): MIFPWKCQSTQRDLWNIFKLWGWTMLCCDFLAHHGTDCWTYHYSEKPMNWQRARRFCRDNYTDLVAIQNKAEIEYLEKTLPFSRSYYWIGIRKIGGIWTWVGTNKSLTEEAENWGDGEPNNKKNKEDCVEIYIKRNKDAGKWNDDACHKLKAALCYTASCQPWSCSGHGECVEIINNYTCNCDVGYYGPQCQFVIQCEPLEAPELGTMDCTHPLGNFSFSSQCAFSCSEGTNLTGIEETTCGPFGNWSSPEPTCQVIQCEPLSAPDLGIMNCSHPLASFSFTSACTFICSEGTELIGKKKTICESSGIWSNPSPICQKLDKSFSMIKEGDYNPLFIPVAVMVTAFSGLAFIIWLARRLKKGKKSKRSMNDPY
The experiment can be described thus: Inhibitory concentration against blocking of Selectin L during migration of inflammatory cells to inflammatory site.

The target of the next experiment is T2, P-selectin (Homo sapiens, UniProt P16109).
T2 sequence (P16109 whole entry): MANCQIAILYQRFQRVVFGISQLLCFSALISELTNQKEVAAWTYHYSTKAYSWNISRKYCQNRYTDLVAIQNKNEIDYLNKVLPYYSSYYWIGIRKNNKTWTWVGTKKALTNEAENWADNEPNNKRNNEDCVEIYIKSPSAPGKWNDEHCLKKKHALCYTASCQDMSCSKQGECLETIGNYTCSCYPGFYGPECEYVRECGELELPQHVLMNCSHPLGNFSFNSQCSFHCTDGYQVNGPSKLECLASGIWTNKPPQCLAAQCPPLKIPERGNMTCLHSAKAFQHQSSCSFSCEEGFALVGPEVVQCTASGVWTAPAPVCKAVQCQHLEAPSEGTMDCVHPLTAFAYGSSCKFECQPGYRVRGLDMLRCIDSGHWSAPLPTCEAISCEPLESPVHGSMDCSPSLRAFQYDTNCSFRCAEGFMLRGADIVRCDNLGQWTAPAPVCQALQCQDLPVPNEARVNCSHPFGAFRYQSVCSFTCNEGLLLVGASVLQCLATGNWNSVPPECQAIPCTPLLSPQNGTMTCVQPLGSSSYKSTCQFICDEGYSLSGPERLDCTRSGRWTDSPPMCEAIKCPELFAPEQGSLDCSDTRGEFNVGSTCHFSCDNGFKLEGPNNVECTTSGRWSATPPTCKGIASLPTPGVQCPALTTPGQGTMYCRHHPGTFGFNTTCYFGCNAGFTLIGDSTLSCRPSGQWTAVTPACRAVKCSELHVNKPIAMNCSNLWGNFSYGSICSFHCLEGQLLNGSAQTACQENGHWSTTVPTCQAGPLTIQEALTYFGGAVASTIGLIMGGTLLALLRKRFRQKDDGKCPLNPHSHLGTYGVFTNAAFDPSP
Description: Inhibitory concentration against blocking of Selectin P during migration of inflammatory cells to inflammatory site.

For the next experiment, the target named is T3, E-selectin (Homo sapiens, UniProt P16581).
T3 sequence (P16581 whole entry): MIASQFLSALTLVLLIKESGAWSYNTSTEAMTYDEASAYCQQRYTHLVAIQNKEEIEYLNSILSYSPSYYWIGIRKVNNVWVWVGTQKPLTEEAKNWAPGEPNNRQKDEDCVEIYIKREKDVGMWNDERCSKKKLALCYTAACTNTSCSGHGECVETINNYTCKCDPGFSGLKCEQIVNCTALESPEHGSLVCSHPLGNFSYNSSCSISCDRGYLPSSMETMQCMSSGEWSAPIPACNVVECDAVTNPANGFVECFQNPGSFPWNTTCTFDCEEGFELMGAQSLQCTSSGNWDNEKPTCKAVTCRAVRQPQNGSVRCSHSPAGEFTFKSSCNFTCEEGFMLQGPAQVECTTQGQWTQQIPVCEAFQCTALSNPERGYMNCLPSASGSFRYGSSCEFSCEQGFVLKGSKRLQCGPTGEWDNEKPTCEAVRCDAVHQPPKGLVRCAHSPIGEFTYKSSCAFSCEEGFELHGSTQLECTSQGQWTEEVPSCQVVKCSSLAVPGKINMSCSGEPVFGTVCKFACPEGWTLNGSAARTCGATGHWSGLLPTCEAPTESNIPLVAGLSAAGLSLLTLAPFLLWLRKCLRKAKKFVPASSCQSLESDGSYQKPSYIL
Description: Inhibitory concentration against blocking of E-selectin during migration of inflammatory cells to inflammatory site.

Where only a bound is given, the exact number is not on record here.

Usually IC50 stands for the point on the concentration scale where inhibition reaches its midpoint. A higher IC50 goes with weaker potency in that assay. In the case of `CC1OC(OC2C(O)COC(CO)C2OC2OC(CO)C(O)C(OS(=O)(=O)O)C2O)C(O)C(O)C1O` (stereo not given), the IC50 at L-selectin is more than 1000 µM; at P-selectin it was 300 µM; at E-selectin it was more than 1000 µM.

As for `CC(=O)N[C@H]1[C@H]([C@H](O)[C@H](O)CO)O[C@@](O[C@H]2[C@@H](O)[C@@H](CO)O[C@@H](O[C@@H]([C@H](O[C@@H]3O[C@@H](C)[C@@H](O)[C@@H](O)[C@@H]3O)[C@H](C=O)NC(C)=O)[C@H](O)CO)[C@@H]2O)(C(=O)O)C[C@@H]1O` [SIALYL LEWIS X], the half-inhibitory concentration (IC50) on L-selectin and on P-selectin was more than 1000 µM throughout.
